Reference: patent publication US8946413B2 (Pfizer Inc., priority 2008, dated 2015)
Where two headings read alike, the source gives them in different places.

Target: T1, CCR2 (Homo sapiens, UniProt P41597)
T1 construct: (leukophoresis pack); host or cells: human peripheral blood mononuclear cells (PBMCs) from a normal human leukophoresis pack
Test: hCCR2 (125-I hMCP-1) small molecule binding assay on human PBMCs
Details: 125I-MCP-1, human PBMCs
From the text: The CCR2 antagonist activity of compounds of the invention can be reported as the inhibitor concentration required for 50% inhibition (IC50 values) of specific binding in receptor binding assays using 125I-labeled MCP-1, as ligand, and Peripheral Blood Mononuclear Cells (PBMCs) prepared from normal human whole blood via density gradient centrifugation. Specific binding is defined as the total binding (e.g., total cpm on filters) minus the non-specific binding. Non-specific binding is defined as the amount of cpm still defected in the presence of excess unlabeled competitor (e.g., MCP-1),
Human PBMCs were used to test compounds of the invention in a binding assay. For example, 200,000 to 500,000 cells were incubated with 0.1 to 0.2 nM 125I-labeled MCP-1, with or without unlabeled competitor (10 nM MCP-1) or various concentrations of compounds to be tested. 125I-labeled MCP-1, were prepared by suitable methods or purchased from commercial vendors (Perkin Elmer, Boston Mass.). The binding reactions were performed in 50 to 250 μL of a binding buffer consisting of […] pH 7.2, and 0.1% BSA (bovine serum albumin), for 30 minutes at room temperature. The binding reactions were terminated by harvesting the membranes by rapid filtration through glass fiber filters (Perkin Elmer) which was presoaked in 0.3% polyethyleneimine or Phosphate Buffered Saline (PBS). The filters were rinsed with approximately 600 μL of binding buffer containing, 0.5 M NaCl or PBS, then dried, and the amount of bound radioactivity was determined by counting on a Gamma Counter (Perkin Elmer).
More specifically, the following assay may be employed to determine IC50 values for the compounds of the present invention.
hCCR2 (125-I hMCP-1) Small Molecule Binding Assay
Normal human leukophoresis pack contents, available from Biological Specialty Corporation, Colmar, Pa., is diluted 1:1 with PBS, divided into 50 ml conical tubes (preferably less than 40 mls per tube), and underlayed with 10 mls of Ficoll-Paque PLUS (GE Healthcare 17-1440-02). The tubes are centrifuged at 2800 rpm in a clinical centrifuge at room temperature for 30 mins, with no brake. The plasma layer is suctioned, and the buffycoat layer is collected. The collected buffycoat layer is washed twice with 50 mls PBS, and centrifuged at 1400 rpm with brake. The cells are counted. The cells are then diluted to 1×10^7 cells per ml in binding buffer.
96 well plates (such as, for example, Millipore MultiScreen96 plates) are pre-wet with about 100 μl binding buffer (RPMI+0.1% BSA+20 mM HEPES), and blotted just prior to compound addition.
5 μl of 50 μM test compounds in 100% DMSO are dotted onto U-bottom polypropylene 96-well plates.
245 μl per well of Binding Buffer is added to each well for 1 μM compound concentration in 2% DMSO.
50 μl of 1 μM compound is transferred to pre-wetted Millipore plates. 50 μl per well of 1×10E7 cells per ml of freshly prepared human PBMCs are added.
The samples are pre-incubated at room temperature for 30 minutes or 1 hour.
50 μl of 450 pM 125-I-hMCP-1 (Perkin-Elmer/NEN cat#NEX332025UC) is added for a final concentration 125-I-hMCP-1 of 150 pM per well.
The final test compound concentration is 0.333 uM in 150 μl total volume with 0.67% DMSO in all wells. Controls for this assay consist of 0% inhibition and 100% inhibition with 1 uM hMCP-1 (saturating conditions). All wells are run in duplicate. Controls may be in replicates of eight.
The samples are incubated at room temperature for 30 minutes.
The buffer is suctioned through the Millipore plates. The plates are washed three times with Wash Buffer (PRMI+0.1% BSA+20 mM HEPES+ 0.4 M NaC).
The plate underdrain is removed. The plate filters are allowed to dry. The filters are then punched out into plastic tubes.
Finally, the sample is counted an a Gamma Counter.
All IC50 plates were repeated for an n=2.
The following table summarizes the IC50 values identified through the described assay.

[1] = 30 min preincubation, read-out: IC50 (nM) 30 min preinc
[2] = 1 hr preincubation, read-out: IC50 (nM) 1 hr preinc

T1 sequence (P41597 whole entry): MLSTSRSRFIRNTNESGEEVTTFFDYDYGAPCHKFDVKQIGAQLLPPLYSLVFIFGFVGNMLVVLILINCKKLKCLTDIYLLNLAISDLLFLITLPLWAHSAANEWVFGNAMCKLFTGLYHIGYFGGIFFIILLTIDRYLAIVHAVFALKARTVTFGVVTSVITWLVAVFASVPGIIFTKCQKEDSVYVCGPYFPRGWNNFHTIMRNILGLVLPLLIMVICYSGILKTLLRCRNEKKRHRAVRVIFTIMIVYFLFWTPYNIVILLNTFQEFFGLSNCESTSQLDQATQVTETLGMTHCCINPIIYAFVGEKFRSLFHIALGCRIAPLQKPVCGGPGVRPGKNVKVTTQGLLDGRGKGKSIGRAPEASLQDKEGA

SMILES: CC[C@]1(C(=O)N2C[C@@H]3C[C@H]2CN3c2cc(C(F)(F)F)ccn2)CC[C@@H](N[C@H]2CCOC[C@H]2OC)C1 [Example 1, 1,5-anhydro-2,3-dideoxy-3-{[(1R,3S)-3-ethyl-3-({(1S,4S)-5-[4-(trifluoromethyl)pyridin-2-yl]-2,5-diazabicyclo[2.2.1]hept-2-yl}carbonyl)cyclopentyl]amino}-4-O-methyl-D-erythro-pentitol]
- IC50 [1]: 2.47 nM

SMILES: CC[C@]1(C(=O)N2C[C@@H]3C[C@H]2CN3c2nccc(C(F)(F)F)n2)CC[C@@H](N[C@H]2CCOC[C@H]2OC)C1 [Example 2, 1,5-anhydro-2,3-dideoxy-3-{[(1R,3S)-3-ethyl-3-({(1S,4S)-5-[4-(trifluoromethyl)pyrimidin-2-yl]-2,5-diazabicyclo[2.2.1]hept-2-yl}carbonyl)cyclopentyl]amino}-4-O-methyl-D-erythro-pentitol]
- IC50 [1]: 3.16 nM

SMILES: CC[C@]1(C(=O)N2C[C@@H]3C[C@H]2CN3c2cc(C(F)(F)F)ncn2)CC[C@@H](N[C@H]2CCOC[C@H]2OC)C1 [Example 3, 1,5-anhydro-2,3-dideoxy-3-{[(1R,3S)-3-ethyl-3-({(1S,4S)-5-[6-(trifluoromethyl)pyrimidin-4-yl]-2,5-diazabicyclo[2.2.1]hept-2-yl}carbonyl)cyclopentyl]amino}-4-O-methyl-D-erythro-pentitol]
- IC50 [1]: 17.8 nM

SMILES: CC[C@]1(C(=O)N2C[C@@H]3C[C@H]2CN3c2cncc(C(F)(F)F)n2)CC[C@@H](N[C@H]2CCOC[C@H]2OC)C1 [Example 4, 1,5-anhydro-2,3-dideoxy-3-{[(1R,3S)-3-ethyl-3-({(1S,4S)-5-[6-(trifluoromethyl)pyrazin-2-yl]-2,5-diazabicyclo[2.2.1]hept-2-yl}carbonyl)cyclopentyl]amino}-4-O-methyl-D-erythro-pentitol]
- IC50 [1]: 3.98 nM

SMILES: CC[C@]1(C(=O)N2C[C@@H]3C[C@H]2CN3c2ccnc(C(F)(F)F)n2)CC[C@@H](N[C@H]2CCOC[C@H]2OC)C1 [Example 5, 1,5-anhydro-2,3-dideoxy-3-{[(1R,3S)-3-ethyl-3-({(1S,4S)-5-[2-(trifluoromethyl)pyrimidin-4-yl]-2,5-diazabicyclo[2.2.1]hept-2-yl}carbonyl)cyclopentyl]amino}-4-O-methyl-D-erythro-pentitol]
- IC50 [1]: 13.3 nM

SMILES: CC[C@]1(C(=O)N2C[C@@H]3C[C@H]2CN3c2cccc(C(F)(F)F)n2)CC[C@@H](N[C@H]2CCOC[C@H]2OC)C1 [Example 6, 1,5-anhydro-2,3-dideoxy-3-{[(1R,3S)-3-ethyl-3-({(1S,4S)-5-[6-(trifluoromethyl)pyridin-2-yl]-2,5-diazabicyclo[2.2.1]hept-2-yl}carbonyl)cyclopentyl]amino}-4-O-methyl-D-erythro-pentitol]
- IC50 [1]: 1.73 nM

SMILES: CC[C@]1(C(=O)N2C[C@@H]3C[C@H]2CN3c2ccnc(C(F)(F)F)c2)CC[C@@H](N[C@H]2CCOC[C@H]2OC)C1 [Example 7, 1,5-anhydro-2,3-dideoxy-3-{[(1R,3S)-3-ethyl-3-({(1S,4S)-5-[2-(trifluoromethyl)pyridin-4-yl]-2,5-diazabicyclo[2.2.1]hept-2-yl}carbonyl)cyclopentyl]amino}-4-O-methyl-D-erythro-pentitol]
- IC50 [1]: 17.1 nM

SMILES: CC[C@]1(C(=O)N2C[C@@H]3C[C@H]2CN3c2nccc(C(F)(F)F)c2F)CC[C@@H](N[C@H]2CCOC[C@H]2OC)C1 [Example 8, 1,5-anhydro-2,3-dideoxy-3-{[(1R,3S)-3-ethyl-3-({(1S,4S)-5-[3-fluoro-4-(trifluoromethyl)pyridin-2-yl]-2,5-diazabicyclo[2.2.1]hept-2-yl}carbonyl)cyclopentyl]amino}-4-O-methyl-D-erythro-pentitol]
- IC50 [1]: 10.7 nM

SMILES: CO[C@@H]1COCC[C@@H]1N[C@@H]1CC[C@](C)(C(=O)N2C[C@@H]3C[C@H]2CN3c2cc(C(F)(F)F)ccn2)C1 [Example 9, 1,5-anhydro-2,3-dideoxy-3-{[(1R,3S)-3-methyl-3-({(1S,4S)-5-[4-(trifluoromethyl)pyridine-2-yl]-2,5-diazabicyclo[2.2.1]hept-2-yl}carbonyl)cyclopentyl]amino}-4-O-methyl-D-erythro-pentitol]
- IC50 [1]: 30.7 nM

SMILES: CO[C@@H]1COCC[C@@H]1N[C@@H]1CC[C@](C)(C(=O)N2C[C@@H]3C[C@H]2CN3c2cncc(C(F)(F)F)n2)C1 [Example 10, 1,5-anhydro-2,3-dideoxy-3-{[(1R,3S)-3-methyl-3-({(1S,4S)-5-[6-(trifluoromethyl)pyrazin-2-yl]-2,5-diazabicyclo[2.2.1]hept-2-yl}carbonyl)cyclopentyl]amino}-4-O-methyl-D-erythro-pentitol]
- IC50 [1]: 83.8 nM

SMILES: CO[C@@H]1COCC[C@@H]1N[C@@H]1CC[C@@](C(=O)N2C[C@@H]3C[C@H]2CN3c2cc(C(F)(F)F)ccn2)(C(C)C)C1 [Example 11, 1,5-anhydro-2,3-dideoxy-3-{[(1R,3S)-3-isopropyl-3-({(1S,4S)-5-[4-(trifluoromethyl)pyridin-2-yl]-2,5-diazabicyclo[2.2.1]hept-2-yl}carbonyl)cyclopentyl]amino}-4-O-methyl-D-erythro-pentitol]
- IC50 [1]: 6.72 nM
- IC50 [2]: 2.44 nM

SMILES: CO[C@@H]1COCC[C@@H]1N[C@@H]1CC[C@@](C(=O)N2C[C@@H]3C[C@H]2CN3c2nccc(C(F)(F)F)n2)(C(C)C)C1 [Example 12, 1,5-anhydro-2,3-dideoxy-3-{[(1R,3S)-3-isopropyl-3-({(1S,4S)-5-[4-(trifluoromethyl)pyrimidin-2-yl]-2,5-diazabicyclo[2.2.1]hept-2-yl}carbonyl)cyclopentyl]amino}-4-O-methyl-D-erythro-pentitol]
- IC50 [1]: 11.1 nM
- IC50 [2]: 1.7 nM

SMILES: CO[C@@H]1COCC[C@@H]1N[C@@H]1CC[C@@](C(=O)N2C[C@@H]3C[C@H]2CN3c2cncc(C(F)(F)F)n2)(C(C)C)C1 [Example 14, 1,5-anhydro-2,3-dideoxy-3-{[(1R,3S)-3-isopropyl-3-({(1S,4S)-5-[6-(trifluoromethyl)pyrazin-2-yl]-2,5-diazabicyclo[2.2.1]hept-2-yl}carbonyl)cyclopentyl]amino}-4-O-methyl-D-erythro-pentitol]
- IC50 [1]: 10.4 nM
- IC50 [2]: 2.3 nM

SMILES: CO[C@@H]1COCC[C@@H]1N[C@@H]1CC[C@@](C(=O)N2C[C@@H]3C[C@H]2CN3c2ccnc(C(F)(F)F)n2)(C(C)C)C1 [Example 15, 1,5-anhydro-2,3-dideoxy-3-{[(1R,3S)-3-isopropyl-3-({(1S,4S)-5-[2-(trifluoromethyl)pyrimidin-4-yl]-2,5-diazabicyclo[2.2.1]hept-2-yl}carbonyl)cyclopentyl]amino}-4-O-methyl-D-erythro-pentitol]
- IC50 [1]: 40 nM
- IC50 [2]: 4.6 nM

SMILES: CO[C@@H]1COCC[C@@H]1N[C@@H]1CC[C@@](C(=O)N2C[C@@H]3C[C@H]2CN3c2cccc(C(F)(F)F)n2)(C(C)C)C1 [Example 16, 1,5-anhydro-2,3-dideoxy-3-{[(1R,3S)-3-isopropyl-3-({(1S,4S)-5-[6-(trifluoromethyl)pyridin-2-yl]-2,5-diazabicyclo[2.2.1]hept-2-yl}carbonyl)cyclopentyl]amino}-4-O-methyl-D-erythro-pentitol]
- IC50 [1]: 9.95 nM
- IC50 [2]: 1.1 nM

SMILES: CO[C@@H]1COCC[C@@H]1N[C@@H]1CC[C@@](C(=O)N2C[C@@H]3C[C@H]2CN3c2ccnc(C(F)(F)F)c2)(C(C)C)C1 [Example 17, 1,5-anhydro-2,3-dideoxy-3-{[(1R,3S)-3-isopropyl-3-({(1S,4S)-5-[2-(trifluoromethyl)pyridin-4-yl]-2,5-diazabicyclo[2.2.1]hept-2-yl}carbonyl)cyclopentyl]amino}-4-O-methyl-D-erythro-pentitol]
- IC50 [1]: 13.7 nM
- IC50 [2]: 5.8 nM
